According to patent US9949478B2, “Herbicidal combination with herbicidal active fatty acids and an ALS-inhibitor” (BAYER CROPSCIENCE AKTIENGESELLSCHAFT, priority 2013, dated 2018):

Legend:
Experiment in all cases: Post-emergence test
Type in all cases: in vivo
Settings in all cases: 34 days
Plantago lanceolata = test system: Plantago lanceolata
Excerpt: (§1) The following formulations of the active compounds involved were used: • fatty acids 120 EC (fatty acid mixture of two fatty acids having hydrocarbon chains of 8 and 10 carbon atoms in a ratio of 60 to 40; for the preparation see EP application number 12177824.5; title: “Emulsifiable Concentrate Formulation with Herbicidal Active Fatty Acids); application date: Jul. 25, 2012). • foramsulfuron 50 WG (water dispersible granule) standard granule formulation without adjuvants • iodosulfuron 10 WG (water dispersible granule) • (commercial formulation Destiny, approved inter alia in Australia—Bayer CropScience) • mesosulfuron 75 WG (water dispersible granule) standard granule formulation without adjuvants • thiencarbazone 70 WG (water dispersible granule) standard granule formulation without adjuvants • flazasulfuron 25 WG (water dispersible granule) • (commercial formulation Chikara, approved inter alia in Germany—product licence holder ISK Biosciences) • amidosulfuron 75 WG (water dispersible granule) • (commercial formulation Hoestar, approved inter alia in Germany—Bayer CropScience) • ethoxysulfuron 60 WG (water dispersible granule) • (commercial formulation SunRice, approved inter alia in Italy—Bayer CropScience)
(§2) The active compound concentrations required for the tests were prepared by dilution with water. The tested active compound combinations were mixed shortly before their biological examination.
(§3) In the case of all herbicide combinations according to the invention, for most of the test plants synergistic actions are observed (see Tables 1 to 25).

Ranunculus repens = test system: Ranunculus repens
Excerpt: as §1, §2, §3

Stellaria media = test system: Stellaria media
Excerpt: as §1, §2, §3

Festuca ovina = test system: Festuca ovina
Excerpt: as §1, §2, §3

Achillea millefolium = test system: Achillea millefolium
Excerpt: as §1, §2, §3

Bellis perennis = test system: Bellis perennis
Excerpt: as §1, §2, §3

Trifolium repens = test system: Trifolium repens
Excerpt: as §1, §2, §3

Plantago major = test system: Plantago major
Excerpt: as §1, §2, §3

Taraxacum officinale = test system: Taraxacum officinale
Excerpt: as §1, §2, §3

Chenopodium album = test system: Chenopodium album
Excerpt: as §1, §2, §3

Rumex acetosa = test system: Rumex acetosa
Excerpt: as §1, §2, §3

Lotus corniculatus = test system: Lotus corniculatus
Excerpt: as §1, §2, §3

## COc1cc(OC)nc(NC(=O)NS(=O)(=O)N(C)S(C)(=O)=O)n1 [Amidosulfuron, 3-(4,6-dimethoxypyrimidin-2-yl)-1-(N-methyl-N-methylsulfonylaminosulfonyl)urea]
Plantago lanceolata; 30 g of active compound/ha
  herbicidal effect [%]: 13%
Ranunculus repens; 30 g of active compound/ha
  herbicidal effect [%]: 96%
Stellaria media; 30 g of active compound/ha
  herbicidal effect [%]: 10%
Festuca ovina; 30 g of active compound/ha
  herbicidal effect [%]: 0%
Achillea millefolium; 30 g of active compound/ha
  herbicidal effect [%]: 18%
Bellis perennis; 30 g of active compound/ha
  herbicidal effect [%]: 33%
Trifolium repens; 30 g of active compound/ha
  herbicidal effect [%]: 13%
Plantago major; 30 g of active compound/ha
  herbicidal effect [%]: 88%
Taraxacum officinale; 30 g of active compound/ha
  herbicidal effect [%]: 88%
Chenopodium album; 30 g of active compound/ha
  herbicidal effect [%]: 27%
Rumex acetosa; 30 g of active compound/ha
  herbicidal effect [%]: 28%
Lotus corniculatus; 30 g of active compound/ha
  herbicidal effect [%]: 0%

## CCOc1ccccc1OS(=O)(=O)NC(=O)Nc1nc(OC)cc(OC)n1 [Ethoxysulfuron, 2-ethoxyphenyl[(4,6-dimethoxypyrimidin-2-yl)carbamoyl]sulfamate]
Plantago lanceolata; 60 g of active compound/ha
  herbicidal effect [%]: 5%
Ranunculus repens; 60 g of active compound/ha
  herbicidal effect [%]: 92%
Stellaria media; 60 g of active compound/ha
  herbicidal effect [%]: 5%
Festuca ovina; 60 g of active compound/ha
  herbicidal effect [%]: 0%
Achillea millefolium; 60 g of active compound/ha
  herbicidal effect [%]: 13%
Bellis perennis; 60 g of active compound/ha
  herbicidal effect [%]: 10%
Trifolium repens; 60 g of active compound/ha
  herbicidal effect [%]: 47%
Plantago major; 60 g of active compound/ha
  herbicidal effect [%]: 0%
Taraxacum officinale; 60 g of active compound/ha
  herbicidal effect [%]: 38%
Chenopodium album; 60 g of active compound/ha
  herbicidal effect [%]: 5%
Rumex acetosa; 60 g of active compound/ha
  herbicidal effect [%]: 25%
Lotus corniculatus; 60 g of active compound/ha
  herbicidal effect [%]: 0%

## COc1cc(OC)nc(NC(=O)NS(=O)(=O)c2ncccc2C(F)(F)F)n1 [Flazasulfuron, 1-(4,6-dimethoxypyrimidin-2-yl)-3-(3-trifluoromethyl-2-pyridylsulfonyl)urea]
Plantago lanceolata; 37.5 g of active compound/ha
  herbicidal effect [%]: 7%
Ranunculus repens; 37.5 g of active compound/ha
  herbicidal effect [%]: 99%
Stellaria media; 37.5 g of active compound/ha
  herbicidal effect [%]: 95%
Festuca ovina; 37.5 g of active compound/ha
  herbicidal effect [%]: 68%
Achillea millefolium; 37.5 g of active compound/ha
  herbicidal effect [%]: 67%
Bellis perennis; 37.5 g of active compound/ha
  herbicidal effect [%]: 52%
Trifolium repens; 37.5 g of active compound/ha
  herbicidal effect [%]: 63%
Plantago major; 37.5 g of active compound/ha
  herbicidal effect [%]: 75%
Taraxacum officinale; 37.5 g of active compound/ha
  herbicidal effect [%]: 87%
Chenopodium album; 37.5 g of active compound/ha
  herbicidal effect [%]: 70%
Rumex acetosa; 37.5 g of active compound/ha
  herbicidal effect [%]: 52%
Lotus corniculatus; 37.5 g of active compound/ha
  herbicidal effect [%]: 23%
